Here are results for 21 molecules from ChEMBL document CHEMBL1146080, “Novel, achiral 1,3,4-benzotriazepine analogues of 1,4-benzodiazepine-based CCK(2) antagonists that display high selectivity over CCK(1) receptors” (J Med Chem, 2006).

Activity calls are given as the source filed them. No cut-off for these calls is given here.

Assay [1] has as its target T1, Cholecystokinin receptor type A (Homo sapiens, UniProt P32238).
T1 sequence (P32238 whole entry): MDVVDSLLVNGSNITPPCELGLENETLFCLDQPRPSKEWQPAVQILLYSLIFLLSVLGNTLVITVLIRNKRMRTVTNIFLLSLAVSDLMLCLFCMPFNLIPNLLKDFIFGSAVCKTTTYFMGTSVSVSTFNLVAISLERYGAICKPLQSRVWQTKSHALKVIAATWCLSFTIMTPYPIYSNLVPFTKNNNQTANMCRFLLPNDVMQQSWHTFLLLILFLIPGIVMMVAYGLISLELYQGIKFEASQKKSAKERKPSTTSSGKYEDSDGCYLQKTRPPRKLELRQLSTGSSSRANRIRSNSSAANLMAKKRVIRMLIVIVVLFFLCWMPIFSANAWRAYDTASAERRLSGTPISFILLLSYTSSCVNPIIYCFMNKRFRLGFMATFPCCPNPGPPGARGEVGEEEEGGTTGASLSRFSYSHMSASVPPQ
Briefly: Displacement of [3H]L-364718 from human recombinant CCK1 receptor expressed in PC3 cell line. The assay is classed as cell-based, PC-3.

For assay [2], the target named is T2, Gastrin/cholecystokinin type B receptor (Homo sapiens, UniProt P32239).
T2 sequence (P32239 whole entry): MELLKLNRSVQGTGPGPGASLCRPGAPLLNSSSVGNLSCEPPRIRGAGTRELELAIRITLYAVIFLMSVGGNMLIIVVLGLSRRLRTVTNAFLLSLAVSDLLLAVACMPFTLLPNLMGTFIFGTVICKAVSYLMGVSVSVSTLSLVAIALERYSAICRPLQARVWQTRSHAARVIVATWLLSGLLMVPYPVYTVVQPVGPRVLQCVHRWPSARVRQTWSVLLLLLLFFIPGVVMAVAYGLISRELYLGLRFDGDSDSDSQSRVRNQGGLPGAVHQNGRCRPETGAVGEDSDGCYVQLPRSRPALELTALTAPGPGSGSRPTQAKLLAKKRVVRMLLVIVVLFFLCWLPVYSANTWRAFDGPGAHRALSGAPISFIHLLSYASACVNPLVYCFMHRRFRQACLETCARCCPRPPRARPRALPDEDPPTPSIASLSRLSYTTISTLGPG
Briefly: Displacement of [125I]BH-CCK-8S from human recombinant CCK2 receptor expressed in NIH3T3 cells. The assay is classed as cell-based.

Assay [3] deals with T3, Cholecystokinin receptor type A (Homo sapiens) (UniProt P32238).
T3 sequence (whole entry): T1 sequence (P32238 whole entry)
Briefly: Inhibition of [3H]L-364718 binding to human recombinant CCK1 receptor expressed in PC3 cell line at 10 uM. The assay is classed as cell-based. Particulars: PC-3.

In assay [4] the target is T1, Cholecystokinin receptor type A. Briefly: Displacement of [3H]L-364718 from human recombinant CCK1 receptor expressed in CHO cell line. The assay is classed as cell-based. A general note: Displacement assays read how much labelled ligand stays bound in the presence of the test substance.
For assay [5], the target named is T4, Gastrin/cholecystokinin type B receptor (Rattus norvegicus, UniProt P30553).
T4 sequence (P30553 whole entry): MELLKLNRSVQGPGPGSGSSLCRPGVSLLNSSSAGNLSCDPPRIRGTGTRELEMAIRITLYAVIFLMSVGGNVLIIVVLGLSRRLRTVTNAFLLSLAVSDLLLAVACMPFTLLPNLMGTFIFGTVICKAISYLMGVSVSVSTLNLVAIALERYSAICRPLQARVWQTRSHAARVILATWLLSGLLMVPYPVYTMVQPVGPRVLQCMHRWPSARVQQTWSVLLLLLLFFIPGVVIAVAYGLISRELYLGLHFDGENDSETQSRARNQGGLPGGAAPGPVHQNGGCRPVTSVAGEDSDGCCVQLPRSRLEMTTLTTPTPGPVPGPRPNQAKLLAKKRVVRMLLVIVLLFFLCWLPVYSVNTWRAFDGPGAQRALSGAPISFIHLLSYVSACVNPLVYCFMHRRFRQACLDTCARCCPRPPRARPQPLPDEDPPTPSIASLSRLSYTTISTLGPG
Briefly: Affinity for CCK2 receptor assessed by inhibition of pentagastrin-stimulated acid secretion in perfused rat stomach. The format is functional, tissue-based. Particulars: read-out: pA2 (converted).

Assay [6] deals with T5, Gastrin/cholecystokinin type B receptor (Canis lupus familiaris, UniProt P30552).
T5 sequence (P30552 whole entry): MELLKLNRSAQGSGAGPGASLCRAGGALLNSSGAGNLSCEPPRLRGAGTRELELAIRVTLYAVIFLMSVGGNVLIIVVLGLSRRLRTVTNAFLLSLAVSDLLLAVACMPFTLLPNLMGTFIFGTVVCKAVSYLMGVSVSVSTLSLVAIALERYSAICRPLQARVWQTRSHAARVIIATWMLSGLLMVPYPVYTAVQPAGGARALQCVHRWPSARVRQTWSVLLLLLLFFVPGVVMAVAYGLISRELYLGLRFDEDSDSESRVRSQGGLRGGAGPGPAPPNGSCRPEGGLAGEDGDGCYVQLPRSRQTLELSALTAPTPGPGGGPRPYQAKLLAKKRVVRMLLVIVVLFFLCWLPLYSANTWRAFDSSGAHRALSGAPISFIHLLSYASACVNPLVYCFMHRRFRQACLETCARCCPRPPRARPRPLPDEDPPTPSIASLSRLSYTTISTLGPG
Briefly: Binding affinity to canine CCK2 receptor.

Assay [7] has as its target T6, Gastrin/cholecystokinin type B receptor (Rattus norvegicus) (UniProt P30553).
T6 sequence (whole entry): T4 sequence (P30553 whole entry)
Briefly: Affinity for CCK2 receptor assessed by inhibition of pentagastrin-stimulated acid secretion in perfused rat stomach at 1 uM. The assay is classed as functional, tissue-based.

Assay [8] addresses T3, Cholecystokinin receptor type A (Homo sapiens). Briefly: Inhibition of [3H]L-364718 binding to human recombinant CCK1 receptor expressed in CHO cell line at 10 uM. The assay is classed as cell-based.

As a reminder, the Ki is a dissociation constant, usually derived from enzyme kinetics or from competition with a known ligand. For `CC(C)(C)C(=O)CN1C(=O)N(CC(=O)Nc2cccc(CO)c2)N=C(C2CCCCC2)c2ccccc21`, the Ki in assay [1] is 5890 nM; in assay [2], 15.1 nM.
By inhibition is commonly meant the change of the read-out against control, counted positive when it falls. On to `CN(C)c1cccc(NC(=O)CN2N=C(C3CCCCC3)c3ccccc3N(CC(=O)C(C)(C)C)C2=O)c1`, for which, in assay [2], the inhibitory constant (Ki) is 6.03 nM. In addition, the inhibition in assay [3] stood at 16%.
In the case of `CC(C)(C)C(=O)CN1C(=O)N(CC(=O)Nc2cccc(O)c2)N=C(C2CCCCC2)c2ccccc21`, the Ki in assay [4] was 1510 nM; in assay [2], 13.2 nM.
For `CNc1cccc(NC(=O)N[C@@H]2N=C(c3ccccn3)c3ccccc3N(CC(=O)C(C)(C)C)C2=O)c1` [NETAZEPIDE], the Ki is 30.2 nM in assay [1] and 0.138 nM in assay [2]. Besides, the Kb in assay [5] was 0.0794 nM.
In the case of `CNc1cccc(NC(=O)CN2N=C(c3ccccc3)c3ccccc3N(CC(=O)C(C)(C)C)C2=O)c1`, in assay [2], the Ki was 74.1 nM. Besides, the inhibition in assay [3] came to 21%.
Consider `CNc1cccc(NC(=O)CN2N=C(C3CCCCC3)c3ccccc3N(CC(=O)C(C)(C)C)C2=O)c1`, for which the figures for the inhibitory constant (Ki) in assay [1] and in assay [2] were above 10000 nM and 7.94 nM, respectively.
Turning to `Cc1cccc(NC(=O)N[C@@H]2N=C(c3ccccc3)c3ccccc3N(C)C2=O)c1` [L-365260], the inhibition constant Ki in assay [1] is 174 nM.
Take `CNc1cccc(NC(=O)CN2N=C(c3ccccn3)c3ccccc3N(CC(=O)C(C)(C)C)C2=O)c1`: the Ki in assay [2] was 195 nM. For the same molecule, the Kb in assay [5] is 224 nM. Also, in assay [3], the inhibition turned out to be 22%.
`CC(C)(C)C(=O)CN1C(=O)N(CC(=O)Nc2cccc(C(=O)O)c2)N=C(C2CCCCC2)c2ccccc21`: the inhibition constant Ki was 11200 nM in assay [1], 12.3 nM in assay [6] and 5.13 nM in assay [2]. Further, the Kb in assay [5] is 0.977 nM.
Take `COc1cccc(NC(=O)CN2N=C(C3CCCCC3)c3ccccc3N(CC(=O)C(C)(C)C)C2=O)c1`: the pA2 entry in assay [7] is “inactive”. The inhibition constant (Ki) in assay [2] is 5.5 nM. In addition, the inhibition in assay [8] amounted to 46%.
As to `CC(C)(C)C(=O)CN1C(=O)N(CC(=O)Nc2cccc(N3CCOCC3)c2)N=C(C2CCCCC2)c2ccccc21`, the Ki in assay [2] was 16.6 nM. For the same molecule, in assay [8], the inhibition stood at 42%.
Turning to `CNc1cccc(NC(=O)C[C@H]2N=C(C3CCCCC3)c3ccccc3N(CC(=O)C(C)(C)C)C2=O)c1`, the inhibition constant (Ki) in assay [1] was 724 nM; in assay [2] it was 13.2 nM. Moreover, the Kb in assay [5] was 28.8 nM.
`CC(C)(C)C(=O)CN1C(=O)N(CC(=O)Nc2cccc(N3CCCC3)c2)N=C(C2CCCCC2)c2ccccc21`: the inhibitory constant (Ki) in assay [1] was above 10000 nM; in assay [2] it was 15.8 nM.
Take `Cc1cccc(NC(=O)CN2N=C(C3CCCCC3)c3ccccc3N(CC(=O)C(C)(C)C)C2=O)c1`: the pA2 entry in assay [7] was “inactive”. In addition, the inhibition constant (Ki) in assay [2] was 8.91 nM. The inhibition in assay [3] amounted to 27%.
`CNc1cccc(NC(=O)C[C@@H]2N=C(C3CCCCC3)c3ccccc3N(CC(=O)C(C)(C)C)C2=O)c1`: the Ki in assay [1] is 1170 nM; in assay [2], 6.03 nM. Besides, the Kb in assay [5] is 28.2 nM.
Regarding `CNc1cccc(NC(=O)CN2N=C(c3ccccn3)c3ccccc3N(CC(=O)c3ccccc3C)C2=O)c1`, the Ki in assay [2] is 288 nM.
Take `CNc1cccc(NC(=O)CN2N=C(c3ccccn3)c3ccccc3N(CC(=O)N3CCCC3)C2=O)c1`: in assay [2], the inhibition constant Ki is 2510 nM.
On to `CC(C)(C)C(=O)CN1C(=O)N(CC(=O)Nc2cccc(-n3ccnc3)c2)N=C(C2CCCCC2)c2ccccc21`, for which, in assay [2], the Ki was 9.12 nM. For the same molecule, the inhibition in assay [8] is 57%.
For `CCOCCNc1cccc(NC(=O)CN2N=C(C3CCCCC3)c3ccccc3N(CC(=O)C(C)(C)C)C2=O)c1`, the inhibition constant Ki in assay [1] is above 10000 nM; in assay [2] it was 44.7 nM.
With `CNCCN(C)c1cccc(NC(=O)CN2N=C(C3CCCCC3)c3ccccc3N(CC(=O)C(C)(C)C)C2=O)c1`, the Ki in assay [4] is 8710 nM; in assay [2], 29.5 nM.
As to `CC(C)(C)C(=O)CN1C(=O)N(CC(=O)Nc2cccc(N)c2)N=C(C2CCCCC2)c2ccccc21`, in assay [2], the Ki was 26.9 nM. For the same molecule, the inhibition in assay [8] came out at 40%.
